First: O=C(O)CCCC(=O)Nc1cccc(-c2nnc(-c3ccc(C(F)(F)F)cc3)nn2)c1
Second: NCc1ccc(CC(=O)Nc2cccc(C(=O)NCCC(=O)O)c2)cc1
The melting point of the first is higher: 246 to 248 °C for the first, 108 to 109 °C for the second.

First: CC1c2ccccc2-c2ccc(F)cc2N1C(=O)c1ccc(O)cc1 (stereo unspecified)
Second: C=CCOc1ccc(F)cc1-c1ccccc1-c1ccccc1
The melting point of the first is higher: 134 to 135 °C for the first, 48 to 49 °C for the second.

First: CC(C)(C)c1ccc(OCC(=O)N2Cc3ccc(C(=O)NCc4cccnc4)n3Cc3ccccc32)cc1
Second: O=C(c1ccc(-n2ccnc2)cc1)N1Cc2cccn2Cc2ccccc21
The melting point of the first is lower: 85 °C for the first, 171 to 172 °C for the second.

Compared with CCOc1c(Br)ccc(C(=O)CC(=O)C2CC2)c1N(C)S(C)(=O)=O, COc1ccc(S(=O)(=O)NC(C)(C)C(=O)NO)cc1 is higher in melting point: 120 to 122 °C for the first, 122 to 125 °C for the second.

First: CS(=O)(=O)N(CCN1C(=O)c2ccccc2C1=O)c1c(Cl)c(Cl)cc2[nH]c(=O)c(=O)[nH]c12
Second: O=C(Cc1cccc(Br)c1)Nc1ccc(Sc2c(O)c3c(Cl)cc(Cl)cc3[nH]c2=O)cc1
The melting point of the first is higher: > 300 °C for the first, 292 to 296 °C for the second.

Compared with O=C(O)c1ccc2c(c1-c1c(C(=O)O)ccc3c1OCO3)OCO2, O=C(NCCO)c1ccc(C(=O)NCCO)cc1 is lower in melting point: 253 to 255 °C for the first, 227 to 229 °C for the second.

First: Cc1ccccc1N1CCN(CCn2c(=O)[nH]c3ccsc3c2=O)CC1
Second: Cc1nc(-c2ccc(CCN3CCN(c4cccc(C(F)(F)F)c4)CC3)cc2)cs1
The melting point of the first is higher: 212 to 214 °C for the first, 170 to 175 °C for the second.

First: C=Cc1cn(-c2c(Cl)cc(C(F)(F)F)cc2Cl)c2ccccc12
Second: CCOC(=O)c1nn(Cc2ccc(Cl)cc2C)c2ccccc12
The melting point of the first is lower: 85 to 87 °C for the first, 120 to 122 °C for the second.

First: CC(C)(C)C(NC(=O)c1ccc(Cl)cc1)NC(=NC#N)Nc1ccccc1F (stereo unspecified)
Second: CC(C)(C)NNC(=O)c1cccc(Cl)c1
The melting point of the first is higher: 208 to 209 °C for the first, 116 to 118 °C for the second.

Compared with O=C(C=Cc1cccc(-c2ccc(F)cc2)c1)Nc1ccc(CN2CCCCC2)cc1, Cc1cc2cc(CN3CCCC3)cnc2cc1NC(=O)c1ccc(-c2ccc(F)cc2)cc1F is higher in melting point: 166 to 167 °C for the first, 174 to 177 °C for the second.

First: O=C1OC2(CCNCC2)CN1Cc1ccccc1
Second: O=C1NC(=C(Br)c2ccccc2)C(=O)C1=NO
The melting point of the first is lower: 69 to 71 °C for the first, 158 °C for the second.

Compared with CCOC(=O)C(=CC=C(SC)C(=O)c1ccc(O)c(O)c1)N(C)C, CCOC(=O)C(=O)C(C#N)c1ccc(Cl)cc1 (stereo unspecified) is lower in melting point: 144 °C for the first, 135 to 136 °C for the second.

First: CC1(C)CCC(C)(C)c2cc(C(=O)c3ccc(C(O)=NO)cc3)c(OCc3ccc(Br)cc3)cc21
Second: Cc1cc(C)cc(C(=O)c2c(-c3ccc(OCC(O)CNC(C)C)cc3)oc3ccccc23)c1 (stereo unspecified)
The melting point of the first is higher: 221 to 224 °C for the first, 154 to 157 °C for the second.

First: CCS(=O)(=O)C(F)(F)C(O)(Cn1cncn1)c1ccc(F)cc1F (stereo unspecified)
Second: CCOC(=O)/C=C/c1cc(-n2cnnc2)cc(C(F)(F)F)c1N
The melting point of the first is lower: 117 to 118 °C for the first, 225 to 227 °C for the second.

Compared with Nc1cc(N2CCCCC2)ccc1[N+](=O)[O-], O=[N+]([O-])c1cccc2c(Cl)c(Br)cnc12 is higher in melting point: 100 to 101 °C for the first, 135 to 136 °C for the second.

First: CCCCNc1cccc([N+](=O)[O-])c1C#N
Second: COc1ccc(C(=O)Nc2cccc3[nH]ccc23)c(OCC2CO2)c1 (stereo unspecified)
The melting point of the first is lower: 72 to 74 °C for the first, 157 °C for the second.

Compared with CCOC(=O)c1cn(Cc2cn(-c3ccc(N4CC(CNC(=O)OC)OC4=O)cc3F)nn2)nc1N (stereo unspecified), CCOC(=O)c1c[nH]c2nc(SCC)c(F)cc2c1=O is higher in melting point: 98 to 100 °C for the first, 280 to 284 °C for the second.

First: CC(C)c1cc(C(C)C)c(CC(=O)NS(=O)(=O)Oc2c(C(C)C)cc([N+](=O)[O-])cc2C(C)C)c(C(C)C)c1
Second: C[C@@H](NC(=O)Nc1ccc(C(C)(C)C)cc1)c1ccc(NS(C)(=O)=O)c(C#C[Si](C)(C)C)c1
The melting point of the first is lower: 85 to 89 °C for the first, 118 to 120 °C for the second.

Compared with O=C(O)COc1ccc(-c2noc3ccccc23)c(Cl)c1Cl, CCCOc1ccccc1-c1nc(O)cc(Cl)n1 is lower in melting point: 166 to 167 °C for the first, 116 °C for the second.

Compared with CCCS(=O)(=O)NC(=N[N+](=O)[O-])NCc1cnc(Cl)s1, Nc1ncc(CCC2CCCC2)s1 is lower in melting point: 105 to 107 °C for the first, 77 to 78 °C for the second.

First: CC(C)c1nc(CO)n(CC2=CCC(=O)N=C2)c1Sc1cc(Cl)cc(Cl)c1
Second: Cn1c(CNC(=O)c2ccc3ccccc3c2)nc(-c2ccncn2)cc1=O
The melting point of the first is lower: 220 °C for the first, 250 to 252 °C for the second.

First: CCCCCCCCCCOc1cccc(C(=O)N(CC(=O)O)CC(=O)O)c1
Second: CCCCCCCCC1CC(c2ccc(-c3ccc(CCCCC)cc3)cc2)OC1=O (stereo unspecified)
The melting point of the first is lower: 87 to 90 °C for the first, 114 to 118 °C for the second.

First: COc1cc(OCc2ccncc2)ccc1/C=C/c1cc(/C=C/c2cccc3[nH]ccc23)n[nH]1
Second: COc1ccc2cc(CNCc3ccccc3)ccc2c1
The melting point of the first is higher: 207 to 215 °C for the first, 45 to 53 °C for the second.

Compared with COc1cccc(-c2ncc(C(=O)N(C)Cc3cccc(O)c3)s2)c1F, COCCOc1ccc(CN(C(=O)C2CCCc3c(O)cccc32)c2ccc(C(C)C)cc2)cn1 (stereo unspecified) is higher in melting point: 140 °C for the first, 153 °C for the second.

First: CN(c1cccc2cc(C3=NCC4(CCN(CC(C)(C)O)CC4)S3)[nH]c12)S(=O)(=O)c1cccs1
Second: O=C1c2ccccc2C(O)N1CCN1CCC(Cc2c[nH]c3ccc(F)cc23)CC1 (racemic)
The melting point of the first is higher: 191 °C for the first, 183 °C for the second.

First: CN(CC(N)=O)C(=O)CCl
Second: NC(N)=NC(=O)Cn1c(Cl)ccc1Cl
The melting point of the first is lower: 85 to 86 °C for the first, 224 to 225 °C for the second.

First: COc1ccc(C=CC(=O)c2ccccc2O)cc1
Second: COC(=O)C(C)c1ccc2cc(OC(=O)CO)ccc2c1 (stereo unspecified)
The melting point of the first is higher: 81 to 83 °C for the first, 49.5 to 52 °C for the second.

Compared with NC(=O)/C=C1/c2cc(F)ccc2CC1O (stereo unspecified), O=C(NCC1Cc2ccc3ccccc3c2O1)OCc1ccccc1 (stereo unspecified) is lower in melting point: 201 to 202 °C for the first, 110 to 112 °C for the second.

Compared with CCCCC(CC)COc1ccc2cc3cc(OCC(CC)CCCC)ccc3cc2c1 (stereo unspecified), COc1cc2cc(CO)c(CO)c(-c3cccc(-n4c(=O)ccc5ccccc54)n3)c2cc1OC is higher in melting point: 60 to 62 °C for the first, 142 to 143 °C for the second.

Compared with COC(=O)c1cscc1NC(=O)COc1ccc(I)cc1, CC(=O)OCCOc1ccc(C2C(=O)Oc3c2cc(C(C)(C)C)cc3C(C)(C)C)cc1 (stereo unspecified) is lower in melting point: 135 to 137 °C for the first, 75 to 78 °C for the second.

First: Cc1cc(-c2ccc(S(N)(=O)=O)cc2)n(-c2ccc(Cl)cc2)c1
Second: CCOC(=O)C1=C(C)NN=C(c2ccccc2)C1c1ccccc1 (stereo unspecified)
The melting point of the first is higher: 171 to 173 °C for the first, 130 °C for the second.

First: CCOC(=O)C1=C(C)Nc2nc(N)nc(N)c2C1c1cccnc1 (stereo unspecified)
Second: CCCNC(=O)c1cccc(C2(c3ccc(OC(F)F)cc3)N=C(N)N(C)C2=O)c1 (stereo unspecified)
The melting point of the first is higher: 224 °C for the first, 93 to 96 °C for the second.

First: CC(=O)OC1CCCC2=CC=C3C4CCC(C(C)CCCC(C)C)C4(C)CCC3C21C (stereo unspecified)
Second: N#Cc1ccc(C(=O)N2CCN(C(=O)[C@@H]3CCCN3S(=O)(=O)c3ccc(Cl)c(CBr)c3Cl)CC2)cc1
The melting point of the first is lower: 105 to 106 °C for the first, 115 °C for the second.

First: CC(C)CC(NC(=O)Cc1ccc(NC(=O)Nc2c(Cl)cccc2Cl)cc1)c1ncc(CCC(=O)O)s1 (stereo unspecified)
Second: CC(C)(C)Nc1nc2cc(CC(=O)O)ccc2o1
The melting point of the first is lower: 148 to 150 °C for the first, 175 to 176 °C for the second.

First: CSc1nc2c([nH]1)N(Cc1ccc(Cl)cc1)C1NCCN1C2=O (stereo unspecified)
Second: COc1ccc(C2NCCS2)cc1 (stereo unspecified)
The melting point of the first is higher: 296 to 297 °C for the first, 94 to 95 °C for the second.

Cc1ccccc1-c1c(C(C)n2cnc3c(N)ncnc32)oc2ccccc2c1=O (stereo unspecified) showed a melting point of 202 to 205 °C.

Reference: a melting point compilation (Tetko et al.; mined from patent text by program, amines drawn as free bases though some values may be those of a salt)
